The nature of experiment [1]: (§1) Activation of luciferase expression in BAF-3/TPO-Rluc cell line. The experiment is classed as functional, cell-based. The note with it: Homo sapiens.
A short description of experiment [2]: Efficacy in activation of luciferase expression in BAF-3/TPO-Rluc cell line and the value is reported as %TPO. The experiment is classed as functional, Homo sapiens.
Experiment [3] deals with UT7. As to the kind of experiment: Efficacy in proliferation of the UT7/TPO-R cell line and the value is reported as %TPO. Type of experiment: functional, Homo sapiens.
The test system of experiment [4] is UT7. As to the kind of experiment: Effective concentration for proliferation of UT7/TPO-R cell line. The note with it: Homo sapiens. The experiment is classed as functional, cell-based.
The nature of experiment [5]: Agonistic activity against proliferation of UT-7/TPO-R cell line. Particulars: Homo sapiens, UT7/TPO-R. The experiment is classed as functional.
Experiment [6] in a line: Efficacy in activation of luciferase expression in UT-7/TPO-R cell line and the value is reported as % salicylaldehyde thio-semicarbazone-thrombopoietin (TPO). Type of experiment: functional, Homo sapiens.
Experiment [7] is described as follows: Activation of luciferase expression in the proliferation of UT7/TPO-R cell line. The experiment is classed as functional. Particulars: Homo sapiens.
Experiment [8] is described as follows: as §1. The experiment is classed as cell-based. The note with it: Homo sapiens.

Experimental findings from ChEMBL document CHEMBL1135540, “Identification of a pharmacophore for thrombopoietic activity of small, non-peptidyl molecules. 2. Rational design of naphtho[1,2-d]imidazole thrombopoietin mimics” (J Med Chem, 2002) are described below.

In the case of `Cc1ccc(-c2cccc(-c3nc4c(ccc5cc(S(=O)(=O)O)cc(O)c54)[nH]3)c2O)cc1C`, the EC50 (as a rule, the concentration that produces a half-maximal response) is 1200 nM in experiment [1] and 1000 nM in experiment [4]. In addition, the results for the TPO in experiment [2] and in experiment [3] were 36% and 70%, respectively.

`O=S(=O)(O)c1cc(O)c2c(ccc3[nH]c(-c4c(O)ccc5ccccc45)nc32)c1` yielded a concentration giving a half-maximal response (EC50) in experiment [1] of 26000 nM. Also, the TPO was 11% in experiment [2] and under 10% in experiment [3].

Regarding `O=S(=O)(O)c1cc2[nH]c(-c3c(O)ccc4ccccc34)nc2c2c(O)cccc12`, in experiment [1], a half-maximal effect (EC50) was put at 35000 nM. For the same molecule, the TPO is listed as 52% in experiment [2] and under 10% in experiment [3].

Take `CC(C)(C)c1ccc(-c2cccc(-c3nc4c(ccc5cc(C(=O)O)cc(O)c54)[nH]3)c2)cc1`: in experiment [5], the EC50 was 300 nM. In addition, in experiment [6], the TPO was 60%.

As for `Cc1ccc(-n2[nH]c(C)c(/N=N/c3c(O)cc(S(=O)(=O)O)c4ccccc34)c2=O)cc1C`, in experiment [7], the concentration for a half-maximal effect (EC50) was 40 nM. In other words, the double-digit nanomolar range.

In turn, `O=S(=O)(O)c1cc2[nH]c(-c3ccc4ccccc4c3O)nc2c2c(O)cccc12` yielded an EC50 in experiment [1] of 4800 nM. In addition, the TPO is reported as 28% in experiment [2] and under 10% in experiment [3].

Consider `Cc1ccc(-c2cccc(/C=N/N=C(\S)Nc3cccc(C(=O)O)c3)c2O)cc1C`, for which the EC50 in experiment [7] worked out at 30 nM. That is a double-digit nanomolar value.

In turn, `O=S(=O)(O)c1cc(O)c2c(ccc3[nH]c(-c4ccc5ccccc5c4O)nc32)c1` showed an EC50 in experiment [1] of 9700 nM. Besides, the figures for the TPO in experiment [2] and in experiment [3] were 27% and under 10%, respectively.

In experiment [8], `CC(C)(C)c1ccc(-c2cccc(-c3nc4c(ccc5cc(S(=O)(=O)O)cc(O)c54)[nH]3)c2)cc1` registered an EC50 of 80 nM. The molecule also yielded a TPO in experiment [2] of 100%.
